Results reported in patent US9314498B2, “Bacteriocin derived from Lactobacillus rhamnosus” (priority 2011, dated 2016).

What was measured:
[1] = system: Porphyromonas gingivalis Hudoi001 strain; assay: Antimicrobial activity against Porphyromonas gingivalis Hudoi001; type: cell-based; settings: not shown in the figures
Experimental: (§1) The Candida albicans GDH18 strain was precultured using SD medium (Difco) at 37° C. for 24 hours under aerobic conditions. The Streptococcus sobrinus B-13 strain, Streptococcus mutans NCTC10449 strain and Streptococcus mutans Ingbritt strain were precultured using TSB medium (Difco) supplemented with 5% yeast extract (Difco) at 37° C. for 24 hours under aerobic conditions. The Porphyromonas gingivalis Hudoi001 strain and Aggregatibacter actinomycetemcomitans Hudoe001 strain were precultured using BHI medium (Difco) supplemented with hemin (5 mg/L) and vitamin K3 (1 mg/L) at 37° C. for 96 hours under anaerobic conditions with Anaero Pack System (Mitsubishi Gas Chemical Company, Inc.).
(§2) After the culture, the cells of the Candida, cariogenic bacteria and periodontal disease bacteria were collected by centrifugation at 1000×g, and washed twice with 1 mM phosphate buffer (pH 6.8). The cells were then suspended such that the final concentration was 1×10^8 cfu/ml or 1×10^7 cells/m. For suspension of the Streptococcus strains, ultrasonic treatment was also carried out.
That is, it is assumed that, in Examples described in Patent Literature 1, the Lactobacillus rhamnosus KO3 strain expressed Kog1 and Kog2, and the expressed Kog1 and Kog2 exerted antimicrobial activity against the Porphyromonas gingivalis Hudoi001 strain. […]

[2] = system: Streptococcus sobrinus B-13 strain; assay: Antimicrobial activity against Streptococcus sobrinus B-13; type: cell-based; settings: tested 0 to 100 μM
Experimental: [The procedure below names another organism; the source lists this organism under the same test.] as §1, §2
Evaluation of the antimicrobial activity was carried out by the method by Edgerton and others (1998) with some modifications. With 20 mL of 1 mM phosphate buffer containing 0 to 25 μM Kog1 or Kog2 synthesized in Example 1, 20 μl of the suspension of the Candida albicans GDH18 strain cultured and prepared by the method described in the above Preparation Example was mixed, and the resulting mixture was incubated at 37° C. for 90 minutes with shaking. As a control, 20 ml of 1 mM phosphate buffer alone was used. The reaction was stopped by addition of 360 ml of YNB medium (Difco), and the number of colonies formed (colony forming units; CFUs) was counted together with the number of colonies in the control, to determine the percentage of living bacterial cells. That is, the equation of: (CFUs of suspension containing Kog1 or Kog2/CFU ml^−1 of control suspension)×100 was used to calculate the percentage. […]

[3] = Measurement of the isoelectric point of the synthesized peptides; type: physicochemical; settings: synthesized peptide
Text: Among antimicrobial peptides, hBD2 (human P-defensin-2 (see Eur J., 2002, Oral Sci. (109), 121-124)) is well known as a basic antimicrobial peptide, and has an isoelectric point of about 10. However, the isoelectric points of Kog1 and Kog2 of the embodiment 2 were higher than the isoelectric point of hBD2, and more similar to the isoelectric points of antimicrobial peptides derived from mammals. Thus, Kog1 and Kog2 were confirmed to have less cytotoxicity.

[4] = system: Streptococcus mutans NCTC10449 strain; assay: Antimicrobial activity against Streptococcus mutans NCTC10449; type: cell-based; settings: 0 to 100 μM, FIG. 4
MC3T3-E1 cells = assay: Differentiation into osteoblasts: Type-I collagen expression by real-time quantitative RT-PCR; type: cell-based, mouse
Experimental: MC3T3-E1 cells, which are mouse-derived osteoblast-like cells, were used. The MC3T3-E1 cells were cultured in α-modified Eagle's Medium (α-MEM) supplemented with 10% FBS (Biological industries, Haemek, Israel), L-glutamine, antibiotic mixture (Invitrogen), 50 μg/ml ascorbic acid (Sigma), and 0 nM, 250 nM, 500 nM or 1000 nM Kog2, at 37° C. under 5% CO2 on plastic or titanium. From the thus cultured MC3T3-E1 cells, total RNA was extracted using TRIzol reagent (Invitrogen), and cDNA was then prepared using ReverTra Ace reverse transcriptase (Toyobo Co., Ltd.). Subsequently, the prepared cDNA was used for analyzing expression of Type-I collagen, which is a differentiation marker for osteoblasts, and of β-actin, which is an endogenous control, by real-time quantitative RT-PCR. In the real-time quantitative RT-PCR, Type-I collagen was analyzed using the forward primer shown in SEQ ID NO: 8, the reverse primer shown in SEQ ID NO: 9 and the probe shown in SEQ ID NO: 10. β-actin was analyzed using the forward primer shown in SEQ ID NO: 11, the reverse primer shown in SEQ ID NO: 12, and the probe shown in SEQ ID NO: 13.

[5] = system: Porphyromonas gingivalis LPS (P.g-LPS) on RAW264.7 macrophage-like cells, ccl2; assay: LPS inactivation: ccl2 secretion of RAW264.7 cells (ELISA); type: cell-based, mouse
Experimental: As a medium, RPMI 1640 medium supplemented with 10% FBS (Fetal Bovine Serum) (Biological industries, Haemek, Israel), 1% antibiotic and 1% L-glutamine was used. In each well of a 24-well plate, 400 μl of the medium was placed, and 100,000 cells/well of mouse-derived RAW264.7 macrophage-like cells were inoculated thereto.
The bacteriocin Kog1 or Kog2, which was the same as in Example 1, was incubated in an Eppendorf tube under each of the following 4 conditions together with Porphyromonas gingivalis LPS (manufactured by InvivoGen) (hereinafter referred to as P.g-LPS) and the same medium as described above, at 37° C. under a gas phase of 5% CO2 for 2 hours: (1) 100 ng/ml P.g-LPS positive control; (2) 100 ng/ml P.g-LPS+5 μM Kog1 or Kog2; (3) 100 ng/ml P.g-LPS+10 μM Kog1 or Kog2; (4) 100 ng/ml P.g-LPS+20 μM Kog1 or Kog2.
The above-described medium placed in each well of the 24-well plate was removed using a pipetteman, and the medium in the Eppendorf tube for each of the 4 conditions described above was placed in the plate, followed by culturing the cells in the well plate at 37° C. under a gas phase of 5% CO2 for 12 hours. Thereafter, the culture supernatant was collected, and the amount of a chemokine ccl2 or the amount of a cytokine TNF-α secreted into the medium was quantified by the ELISA method by measuring the absorbance at 450 nm using a microplate reader. Since both ccl2 and TNF-α are involved in formation of inflammation, analysis of the relationship between the endotoxin LPS and the bacteriocins Kog1 and Kog2 is possible.

For “Kog2: peptide having the amino acid sequence shown in SEQ ID NO: 2, bacteriocin of Lactobacillus rhamnosus, synthesized by the tea-bag method (MTKVRSSRLRPLTLRLLSAPARAQFLTIACRAILRYDLINS; listed as Lactobacillus rhamnosus)”, which antimicrobial activity [1] is on record?
The antimicrobial activity was “capable of exerting antimicrobial activity”.

And the “peptide concentration at which 100% of the strain was killed” value [2]?
Its value is 0.39 µM.

And the “isoelectric point (pl)” value [3]?
Its value is 12.38.

And the “antimicrobial activity compared to the other antimicrobial peptides (hBD2, lysozyme)” value [4]?
Its value is “capable of killing a larger amount of Streptococcus mutans even at relatively low peptide concentration”.

What about the “value of Type I collagen/β-actin versus no Kog2 added” value (MC3T3-E1 cells; Kog2 at 250 nM vs ctrl) of the same substance?
Its value is 3 times.

What about the “concentration that best promotes differentiation into osteoblasts” value (MC3T3-E1 cells; tested 0, 250, 500, 1000 nM) of the same substance?
The value was “about 250 nM”.

What about the “amount of the chemokine ccl2 secreted” value ([5]; 100 ng/ml P.g-LPS + Kog2 above a certain level, as amount added increases) of the same substance?
The value was “decreases”.

What about the “amount of the chemokine ccl2 secreted” value ([5]; 100 ng/ml P.g-LPS + small amount of Kog2 (5 μM)) of the same substance?
Its value is “increases”.
